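All cell lines were grown in 96-well plates and treated with compound for 48 hours. GI50: concentration for 50% inhibition of growth.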 Active and inactive are the calls of the source. No stated cut-off is given here; in the data, active = GI50 up to about 1.1 µM and inactive = higher.
Key:
Assay in all cases: NCI-60 cell line screen, 48 h
A549 = system: A549
DU-145 = system: DU-145
SR = system: SR
NCI-H460 = system: NCI-H460
OVCAR-5 = system: OVCAR-5
IGROV-1 = system: IGROV-1
SNB-75 = system: SNB-75
SK-MEL-2 = system: SK-MEL-2
TK-10 = system: TK-10
CAKI-1 = system: CAKI-1
K562 = system: K562
UACC-257 = system: UACC-257
SF-268 = system: SF-268
HCC 2998 = system: HCC 2998
MOLT-4 = system: MOLT-4
UO-31 = system: UO-31
T47D = system: T47D
PC-3 = system: PC-3
SF-295 = system: SF-295
RXF 393 = system: RXF 393
UACC-62 = system: UACC-62
KM12 = system: KM12
HCT-15 = system: HCT-15
SNB-19 = system: SNB-19
ACHN = system: ACHN
MCF7 = system: MCF7
BT-549 = system: BT-549
MDA-MB-231 = system: MDA-MB-231
CCRF-CEM = system: CCRF-CEM
HOP-62 = system: HOP-62
LOX IMVI = system: LOX IMVI
786-0 = system: 786-0
OVCAR-4 = system: OVCAR-4
MDA-N = system: MDA-N
COLO 205 = system: COLO 205
HCT-116 = system: HCT-116
NCI-H522 = system: NCI-H522
M14 = system: M14
SK-MEL-5 = system: SK-MEL-5
SK-OV-3 = system: SK-OV-3
EKVX = system: EKVX
NCI/ADR-RES = system: NCI/ADR-RES
U-251 = system: U-251
OVCAR-3 = system: OVCAR-3
SN12C = system: SN12C
NCI-H23 = system: NCI-H23
SW-620 = system: SW-620
MDA-MB-435 = system: MDA-MB-435
HL-60 = system: HL-60
HOP-92 = system: HOP-92
SK-MEL-28 = system: SK-MEL-28
NCI-H226 = system: NCI-H226
OVCAR-8 = system: OVCAR-8
SF-539 = system: SF-539
HT-29 = system: HT-29
A498 = system: A498

Compound: O=C(OCC(Cl)(Cl)Cl)N1CC[C@H](C2CCCCC2)C1
- GI50 (A549): 14.9 µM (inactive)
- GI50 (DU-145): 15.8 µM (inactive)
- GI50 (SR): 16.3 µM (inactive)
- GI50 (NCI-H460): 18.6 µM (inactive)
- GI50 (OVCAR-5): 18.9 µM (inactive)
- GI50 (IGROV-1): 16.4 µM (inactive)
- GI50 (SNB-75): 20.8 µM (inactive)
- GI50 (SK-MEL-2): 15.8 µM (inactive)
- GI50 (TK-10): 18.8 µM (inactive)
- GI50 (CAKI-1): 31.6 µM (inactive)
- GI50 (K562): 21.1 µM (inactive)
- GI50 (UACC-257): 19.1 µM (inactive)
- GI50 (SF-268): 21 µM (inactive)
- GI50 (HCC 2998): 18.5 µM (inactive)
- GI50 (MOLT-4): 28.1 µM (inactive)
- GI50 (UO-31): 17.6 µM (inactive)
- GI50 (T47D): 15.3 µM (inactive)
- GI50 (PC-3): 21.6 µM (inactive)
- GI50 (SF-295): 16.2 µM (inactive)
- GI50 (RXF 393): 19.5 µM (inactive)
- GI50 (UACC-62): 22.1 µM (inactive)
- GI50 (KM12): 17.3 µM (inactive)
- GI50 (HCT-15): 18.2 µM
- GI50 (SNB-19): 16.5 µM (inactive)
- GI50 (ACHN): 19.3 µM (inactive)
- GI50 (MCF7): 18.6 µM (inactive)
- GI50 (BT-549): 24.2 µM (inactive)
- GI50 (MDA-MB-231): 35.5 µM (inactive)
- GI50 (CCRF-CEM): 15.5 µM (inactive)
- GI50 (HOP-62): 18.3 µM (inactive)
- GI50 (LOX IMVI): 19.5 µM (inactive)
- GI50 (786-0): 16.7 µM (inactive)
- GI50 (OVCAR-4): 16.6 µM (inactive)
- GI50 (MDA-N): 34.9 µM (inactive)
- GI50 (COLO 205): 18.8 µM (inactive)
- GI50 (HCT-116): 14.6 µM (inactive)
- GI50 (NCI-H522): 17.1 µM (inactive)
- GI50 (M14): 20.7 µM (inactive)
- GI50 (SK-MEL-5): 14.9 µM (inactive)
- GI50 (SK-OV-3): 15.6 µM (inactive)
- GI50 (EKVX): 16.9 µM (inactive)
- GI50 (NCI/ADR-RES): 15 µM (inactive)
- GI50 (U-251): 1.09 µM (active)
- GI50 (OVCAR-3): 16.6 µM (inactive)
- GI50 (SN12C): 37.2 µM (inactive)
- GI50 (NCI-H23): 15.3 µM (inactive)

Compound: Cc1ccc2c(c1)[nH]c(=S)n2C=C(C(N)=O)C(N)=O
- GI50 (A549): > 100 µM (inactive)
- GI50 (DU-145): > 100 µM (inactive)
- GI50 (NCI-H460): > 100 µM (inactive)
- GI50 (OVCAR-5): > 100 µM (inactive)
- GI50 (IGROV-1): > 100 µM (inactive)
- GI50 (SW-620): > 100 µM (inactive)
- GI50 (SNB-75): > 100 µM (inactive)
- GI50 (SK-MEL-2): > 100 µM (inactive)
- GI50 (MDA-MB-435): > 100 µM (inactive)
- GI50 (TK-10): > 100 µM (inactive)
- GI50 (CAKI-1): > 100 µM (inactive)
- GI50 (UACC-257): > 100 µM (inactive)
- GI50 (HL-60): 5.66 µM (inactive)
- GI50 (SF-268): > 100 µM (inactive)
- GI50 (HCC 2998): > 100 µM (inactive)
- GI50 (HOP-92): > 100 µM (inactive)
- GI50 (UO-31): > 100 µM (inactive)
- GI50 (T47D): > 100 µM (inactive)
- GI50 (SF-295): > 100 µM (inactive)
- GI50 (RXF 393): > 100 µM (inactive)
- GI50 (UACC-62): > 100 µM (inactive)
- GI50 (KM12): > 100 µM (inactive)
- GI50 (HCT-15): > 100 µM
- GI50 (SNB-19): > 100 µM (inactive)
- GI50 (ACHN): > 100 µM (inactive)
- GI50 (BT-549): > 100 µM (inactive)
- GI50 (MDA-MB-231): > 100 µM (inactive)
- GI50 (SK-MEL-28): > 100 µM (inactive)
- GI50 (NCI-H226): > 100 µM (inactive)
- GI50 (HOP-62): > 100 µM (inactive)
- GI50 (OVCAR-8): > 100 µM (inactive)
- GI50 (LOX IMVI): > 100 µM (inactive)
- GI50 (786-0): > 100 µM (inactive)
- GI50 (SF-539): > 100 µM (inactive)
- GI50 (OVCAR-4): > 100 µM (inactive)
- GI50 (MDA-N): > 100 µM (inactive)
- GI50 (COLO 205): > 100 µM (inactive)
- GI50 (HCT-116): > 100 µM (inactive)
- GI50 (HT-29): > 100 µM (inactive)
- GI50 (A498): > 100 µM (inactive)
- GI50 (M14): > 100 µM (inactive)
- GI50 (SK-MEL-5): > 100 µM (inactive)
- GI50 (SK-OV-3): > 100 µM (inactive)
- GI50 (EKVX): 33.3 µM (inactive)
- GI50 (NCI/ADR-RES): > 100 µM (inactive)
- GI50 (U-251): > 100 µM (inactive)
- GI50 (OVCAR-3): > 100 µM (inactive)
- GI50 (SN12C): > 100 µM (inactive)
- GI50 (NCI-H23): > 100 µM (inactive)
